Test results reported in patent publication EP0508004A1, “Phenylsulfonylalkanoic acid compounds” (Kissei Pharmaceutical Co., Ltd., priority 1991, dated 1992).
pIC50: −log10 of the molar value.

How the values were obtained:
[1] = system: amylase secretion; test: Effect on amylase secretion in rats (stimulated by CCK-8); assay type: in vivo; settings: Rattus norvegicus, sc; intraduodenal administration 30 minutes before CCK-8 (10 µg/kg, subcutaneous); anesthetized male Wistar rats; amylase in biliopancreatic juice; read-out: ED₅₀
Experimental: Male Wistar rats were anesthetized with urethane (1.5 g/kg, S.C.), and tracheal cannula was inserted. Biliopancreatic juice was collected from the cannula which had been inserted into the common bile duct. Thirty minutes after intraduodenal administration of test drug, anylase secretion was stimulated by subcutaneous injection of CCK-8 (10 µg/kg). Amylase concentration in the sample collected every 30 minutes during experiment was assayed using Amylase B Test (Wako), and ED₅₀ value was calculated.

[2] = system: Gallbladder strips; test: CCK-antagonism in isolated gallbladder (contraction of strips induced by CCK-8); assay type: cell-based, Hartley guinea-pig; settings: Cavia porcellus; antagonism of gallbladder contraction induced by 10⁻⁸ M CCK-8, guinea-pig strips, Krebs solution, 37°C; read-out: IC₅₀
Experimental: Gallbladder strips isolated from male Hartley guinea-pig were prepared and suspended in Magnus bath filled with Krebs solution (1 g of initial tension). The solution kept at 37°C was aerated with a mixture of 95% O₂ and 5% CO₂. The isometric contraction of strips was recorded through a force-displacement transducer. Antagonism by test drugs against gallbladder contraction induced by 10⁻⁸ M CCK-8 was examined and IC₅₀ value was calculated.

| SMILES | ED50 [1] | pIC50 [2] |
| --- | --- | --- |
| CCCCCN(CCCCC)C(=O)C(CC(=O)O)CS(=O)(=O)c1ccc(Cl)c(Cl)c1 (racemic) [Compound 29] | 9.9 mg/kg | 4.43 |
| CCCCCCN(CCCCCC)C(=O)C(CCC(=O)O)CS(=O)(=O)c1ccc(Cl)c(Cl)c1 (racemic) [Compound 33] | 7.1 mg/kg |  |
